Experimental data published in US4218448A, “Antihypertensive polyfluorohydroxyisopropyl bicyclic and tricyclic carbostyrils” (E. I. Du Pont de Nemours and Company, priority 1977, dated 1980).
Like-named read-outs stand apart in the source and are kept apart here.

Test system: DOCA hypertensive rats
Assay: Antihypertensive activity in DOCA hypertensive rats (oral), systolic arterial blood pressure
Type: in vivo
Settings: Rattus norvegicus, 1.5 h, read-out: ED50
Procedure: Rats are made hypertensive by subcutaneous implantation of pellets of desoxycorticosterone acetate (DOCA) and by giving saline solution to drink essentially according to the method described by Sturtevant [Annals of Internal Medicine, 49, 1281 (1958)]. Graded dose levels of each compound are administered orally to groups of 8 hypertensive rats. The compound is prepared in an aqueous polyvinyl alcohol/acacia vehicle and administered at a volume to body weight ratio of 5.0 ml/kg. Sixteen hypertensive rats receiving the aqueous vehicle by the same route serve as controls for each test. At various intervals of time after treatment, usually 90 minutes, the systolic arterial blood pressure of each rat is determined by a modification of the microphone-manometer technique [Friedman, M. and Freed, S. C., Proc. Soc. Exp. Biol, and Med., 70, 670 (1949)]. […]

[1] = oral, groups of 8 DOCA hypertensive rats, usually 90 minutes after treatment, dose producing 30 mm Hg reduction in blood pressure vs controls (Effective Dose 30, ED30)

Row | SMILES | ED (30 mm Hg) [1] | ED (30 mm Hg) (po)
1 | CC(=O)OC(c1cc2c3c(c1)c(C)cc(=O)n3CC2)(C(F)(F)F)C(F)(F)F [Example 44, 1,2-dihydro-8-[2,2,2-trifluoro1-hydroxy-1-(trifluoromethyl)ethyl]-6-methyl-4H-pyrrolo[3,2,1-ij]quinolin-4-one acetate] | 0.2 mg/kg | –
2 | CCn1c(=O)cc(C)c2cc(C(O)(C(F)(F)F)C(F)(F)F)ccc21 [Example 31, 1-ethyl-6-[2,2,2-trifluoro-1-hydroxy-1-(trifluoromethyl)ethyl]-4-methyl-2(1H)-quinolinone] | 1.2 mg/kg | –
3 | COC(c1cc2c3c(c1)c(C)cc(=O)n3CC2)(C(F)(F)F)C(F)(F)F [Example 50, 1,2-dihydro-8-[2,2,2-trifluoro-1-methoxy-1-(trifluoromethyl)-ethyl]-6-methyl-4H-pyrrolo[3,2,1-ij]quinolin-4-one] | 0.35 mg/kg | –
4 | CCOC(c1cc2c3c(c1)c(C)cc(=O)n3CC2)(C(F)(F)F)C(F)(F)F [Example 51] | 0.5 mg/kg | –
5 | Cc1cc(=O)[nH]c2ccc(C(O)(C(F)(F)F)C(F)(F)F)cc12 [Example 24, 6-(2,2,2-trifluoro-1-hydroxy-1-(trifluoromethyl)ethyl)-4-methyl-2(1H)-quinolinone] | 4.1 mg/kg | –
6 | Cc1cc(=O)n2c3c(cc(C(O)(C(F)(F)F)C(F)(F)F)cc13)CCC2 [Example 1, 2,3-dihydro-9-[2,2,2-trifluoro-1-hydroxy-1-(trifluoromethyl)ethyl]-7-methyl-1H,5H-benzo[ij]quinolizin-5-one] | 1 mg/kg | –
7 | Cc1cc(=O)n2c3c(cc(C(O)(C(F)(F)F)C(F)(F)F)cc13)CCCC2 [Example 23, 5,6,7,8-tetrahydro-10-[2,2,2-trifluoro-1-hydroxy-1-(trifluoromethyl)ethyl]-1-methyl-3H-azepino[3,2,1-ij]quinolin-3-one] | 1.3 mg/kg | –
8 | Cc1c(N)c(=O)n2c3c(cc(C(O)(C(F)(F)F)C(F)(F)F)cc13)CC2 [Example 13, 1,2-dihydro-8-[2,2,2-trifluoro-1-hydroxy-1-(trifluoromethyl)-ethyl]-5-amino-6-methyl-4H-pyrrolo[3,2,1-ij]quinolin-4-one] | 5.4 mg/kg | –
9 | CCCCCCCCCCCC(=O)OC(c1cc2c3c(c1)c(C)cc(=O)n3CC2)(C(F)(F)F)C(F)(F)F [Example 45, 1,2-dihydro-8-[2,2,2-trifluoro-1-hydroxy-1-(trifluoromethyl)ethyl]-6-methyl-4H-pyrrolo[3,2,1-ij]quinolin-4-one laurate] | 0.12 mg/kg | –
10 | CCCCn1c(=O)cc(C)c2cc(C(O)(C(F)(F)F)C(F)(F)F)ccc21 [Example 34] | 5.2 mg/kg | –
11 | Cc1cc(=O)n(C)c2ccc(C(O)(C(F)(F)F)C(F)(F)F)cc12 [Example 32] | 0.4 mg/kg | –
12 | Cc1cc(=O)n2c3c(cc(C(O)(C(F)(F)F)C(F)(F)Cl)cc13)CC2 (centres unmarked) [Example 53, 1,2-dihydro-8 [2-chloro-2,2-difluoro-1-hydroxy-1-(trifluoromethyl)ethyl]-6-methyl-4H-pyrrolo[3,-2,1-ij]quinolin-4-one] | 0.07 mg/kg | –
13 | CCc1cc(C(O)(C(F)(F)F)C(F)(F)F)cc2c(C)cc(=O)[nH]c12 [Example 26] | 1.3 mg/kg | –
14 | Cc1cc(=O)n2c3c(cc(C(O)(C(F)(F)F)C(F)(F)F)cc13)C(C)C2 (centres unmarked) | 0.6 mg/kg | –
15 | Cc1cc(=O)n2c3c(cc(C(O)(C(F)(F)F)C(F)(F)F)cc13)C(C)CC2 (centres unmarked) | 3.6 mg/kg | –
16 | CCc1cc(=O)n2c3c(cc(C(O)(C(F)(F)F)C(F)(F)F)cc13)CCC2 [Example 8, 2,3-dihydro-7-ethyl-9-[2,2,2-trifluoro-1-hydroxy-1-(trifluoromethyl)-ethyl]-1H,5H-benzo[ij]quinolizin-5-one] | 0.27 mg/kg | –
17 | Cc1c(Cl)c(=O)n2c3c(cc(C(O)(C(F)(F)F)C(F)(F)F)cc13)CCC2 [Example 9, 6-chloro-2,3-dihydro-9-[2,2,2-trifluoro-1-hydroxy-1-(trifluoromethyl)ethyl]-7-methyl-1H,5H-benzo[ij]quinolizin-5-one] | – | 1.6 mg/kg
18 | CCc1cc(=O)n2c3c(cc(C(O)(C(F)(F)F)C(F)(F)F)cc13)CC2 [Example 22, 1,2-dihydro-6-ethyl-8-[2,2,2-trifluoro-1-hydroxy-1-(trifluoromethyl)ethyl]-4H-pyrrolo[3,2,1-ij]quinolin-4-one] | 0.11 mg/kg | –
19 | O=c1ccc2cc(C(O)(C(F)(F)F)C(F)(F)F)cc3c2n1CCC3 [Example 42, 2,3-dihydro-9-[2,2,2-trifluoro-1-hydroxy-1-(trifluoromethyl)ethyl]-1H,5H-benzo[ij]quinolizin-5-one] | 3 to 9 mg/kg | –
20 | Cc1cc(=O)n2c3c(cc(C(O)(C(F)F)C(F)F)cc13)CC2 [Example 54] | 1.2 mg/kg | –
21 | Cc1cc(=O)n2c3c(cc(C(O)(C(F)(F)F)C(F)(F)F)cc13)CC2C (centres unmarked) [Example 14, 1,2-dihydro-2,6-dimethyl-8-[2,2,2-trifluoro-1-hydroxy-1-(trifluoromethyl)-ethyl]-4H-pyrrolo[3,2,1-ij]quinolin-4-one] | 0.047 mg/kg | –
22 | Cc1cc(=O)n2c3c(cc(C(OC(=O)c4ccccc4)(C(F)(F)F)C(F)(F)F)cc13)CC2 [Example 46] | 0.25 mg/kg | –
23 | Cc1cc(=O)n2c3c(cc(C(O)(C(F)F)C(F)(F)F)cc13)CC2 (centres unmarked) [Example 52, 1,2-dihydro-8-[2,2,-difluoro-1-hydroxy-1-(trifluoromethyl)ethyl]-6-methyl-4H-pyrrolo[3,2,1-ij]quinolin-4-one] | 0.075 mg/kg | –
24 | CCC(=O)OC(c1cc2c3c(c1)c(C)cc(=O)n3CC2)(C(F)(F)F)C(F)(F)F [Example 43, 1,2-dihydro-8-[2,2,2-trifluoro-1-hydroxy-1-(tri-fluoromethyl)ethyl]-6-methyl-4H-pyrrolo[3,2,1-ij]quinolin-4-one propanoate] | 0.22 mg/kg | –
25 | Cc1cc(=O)[nH]c2c(C)cc(C(O)(C(F)(F)F)C(F)(F)F)cc12 [Example 25] | 3.7 mg/kg | –
26 | Cc1cc(=O)n2c3c(cc(C(O)(C(F)(F)F)C(F)(F)F)cc13)CC2 [Example 11, 1,2-dihydro-8-[2,2,2-trifluoro-1-hydroxy-1-(trifluoromethyl)ethyl]-6-methyl-4H-pyrrolo[3,2,1-ij]quinolin-4-one] | 0.13 mg/kg | –
27 | Cc1cc(=O)n2c3c(cc(C(O)(C(F)(F)F)C(F)(F)F)cc13)CCC2C (centres unmarked) [Example 2, 2,3-dihydro-3,7-dimethyl-9-[2,2,2-trifluoro-1-hydroxy-1-(trifluoromethyl)ethyl]-1H,5H-benzo-[ij]quinolizin-5-one] | 0.66 mg/kg | –
28 | Cc1c([N+](=O)[O-])c(=O)n2c3c(cc(C(O)(C(F)(F)F)C(F)(F)F)cc13)CC2 [Example 12, 1,2-dihydro-8-[2,2,2-trifluoro-1-hydroxy-1-(trifluoromethyl)-ethyl]-6-methyl-5-nitro-4H-pyrrolo[3,2,1-ij]quinolin-4-one] | 1.5 mg/kg | –
29 | Cc1c(Br)c(=O)n2c3c(cc(C(O)(C(F)(F)F)C(F)(F)F)cc13)CCC2 [Example 10] | 9 mg/kg | –
